The test system of test [1] is JAG1 OE tumor cells bone metastasis. Description: Bone metastasis xenograft, JAG1 OE tumor cells, MRK-003 treatment. The class given is in vivo, mouse. As to the method:
For bone metastsis studies, 10^5 tumor cells were injected into the left cardiac ventricle of anesthetized female athymic Ncr-nu/nu or BALB/c mice. Development of metastases was monitored by BLI. Bioluminescence images were acquired with a Xenogen IVIS 200 Imaging System. Analysis was performed with Living Image software by measuring photon flux in the hindlimbs of mice. Data were normalized to the signal on day 7. Bone metastasis-free survival curves represent the time point at which each mouse developed bone metastasis by threshold BLI signals in the hindlimbs. […]
Osteolysis was assessed by X-ray radiography. […] Osteolytic lesions were identified on radiographs as demarcated radiolucent lesions in the bone and quantified using the ImageJ software (National Institutes of Health).
Hindlimb bones were excised from mice at the end point of each experiment, immediately after the last BLI time point. […] For quantitative analysis of lesion area, a 5× objective was used to focus on the tumor region of interest and images were acquired using the AxioCamICc3 camera set to an exposure of 100 ms. Lesions that were larger than the field of view were quantified by acquiring multiple images to encompass the entire lesion. The “spline” function of the AxioVision software was used to outline the region of interest and subsequently quantify the lesion area. […]

The subject of test [2] is SCP28 tumor cells cocultured with MC3T3-E1 osteoblasts. Description: Osteoblast coculture tumor cell quantification by luciferase assay. The class given is cell-based, human. The note with it: luciferase assay after 6 days; MRK-003 1 μM or 5 μM; anti-IL-6 0.5 and 1.0 μg/ml. As to the method:
MC3T3-E1 cells were seeded at 2×10^5 cells/well in 12-well plates. After confluence was achieved, luciferase/GFP-labeled (GFP+) control and JAG1 OE cells were added at 1×10^4 cells/well in triplicate and treated with DMSO or 1 μM MRK-003. Media supplemented with appropriate drugs were changed every 2 days. After 6 days the coculture was subjected to a luciferase assay to selectively quantify the number of tumor cells. These values were normalized against luciferase quantification of 12-well plates seeded with tumor cells alone.
For transfection experiments, MC3T3-E1 osteoblasts were seeded at 2×10^5 cells/well in 12-well plates and grown to 95% confluence. […] Following 6 days, the coculture was lysed and subjected to a luciferase assay to selectively quantify the number of tumor cells. For gene expression analysis, RNA from cocultures was collected in RLT lysis buffer, extracted with RNeasy mini kit (Qiagen), and subjected to quantitative RT-PCR.
For in vitro experiments, GSI-IX (Calbiochem) and TGFβ Receptor 1 (EMD Biosciences 616451) were dissolved in DMSO. […] RNA and protein were collected and analyzed for JAGGED1 expression as described above. […]

As for `O=S1(=O)N[C@@]2(CN1CC(F)(F)F)[C@@H]1CC[C@H]2Cc2ccc(/C=C/CN3CCC(C(F)(F)F)CC3)cc2C1` [MRK-003], in test [1] (JAG1 OE, FIG. 17D), the osteolysis entry is reported as “reduced”. Besides, the “reduction of bone metastasis in the JAG1 OE group” value in test [1] (tumor signal decreased to levels of control group, FIGS. 17B-17C) is given as “more than 6 fold”. For the same molecule, in test [2], the “growth advantage of JAG1 OE tumor cells in osteoblast coculture” value is “abolished”.

Source of the values: patent US20150329918A1, “JAGGED1 AS A MARKER AND THERAPEUTIC TARGET FOR BREAST CANCER BONE METASTASIS” (The Trustees of Princeton University, priority 2011, published 2015).
